In general, IC50 refers to the concentration needed to halve the response being measured.

This assay addresses Factor D (Homo sapiens (Human), UniProt P00746). The assay can be described thus: biochemical. To be noted: read-out: IC50. Type of assay: biochemical.

Chain of Factor D (P00746 26-253): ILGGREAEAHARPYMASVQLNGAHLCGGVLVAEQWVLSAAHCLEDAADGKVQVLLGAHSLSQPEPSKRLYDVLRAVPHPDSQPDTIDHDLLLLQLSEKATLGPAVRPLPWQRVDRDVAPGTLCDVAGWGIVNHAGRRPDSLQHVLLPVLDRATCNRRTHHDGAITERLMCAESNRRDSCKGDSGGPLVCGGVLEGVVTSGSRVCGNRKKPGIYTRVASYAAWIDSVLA

For the compound `CC(=O)c1cn(CC(=O)N2[C@@H]3C[C@@H]3C[C@H]2C(=O)Nc2cccc(Br)n2)c2ccncc12` [Example 751, (1R,3S,5R)-2-[2-(3-Acetyl-pyrrolo[3,2-c]pyridin-1-yl)-acetyl]-2-aza-bicyclo[3.1.0] hexane-3-carboxylic acid (6-bromo-pyridin-2-yl)-amide], the IC50 is 81 nM.
As for `CC(=O)c1cn(CC(=O)N2[C@@H]3C[C@@H]3C[C@H]2C(=O)Nc2cccc(Br)n2)c2nnccc12` [Example 752, (1R,3S,5R)-2-[2-(5-Acetyl-pyrrolo[2,3-c]pyridazin-7-yl)-acetyl]-2-aza-bicyclo[3.1.0] hexane-3-carboxylic acid (6-bromo-pyridin-2-yl)-amide], the figure is 95 nM.
Consider `CO[C@H]1[C@@H](C(=O)Nc2cccc(Br)n2)N(C(=O)Cn2nc(C(N)=O)c3ccccc32)C[C@@H]1F` [Example 754, 1-{2-[(2S,3S,4S)-2-(6-Bromo-pyridin-2-ylcarbamoyl)-4-fluoro-3-methoxy-pyrrolidin-1-yl]-2-oxo-ethyl}-1H-indazole-3-carboxylic acid amide], for which the IC50 amounted to 5 nM.
As for `CO[C@H]1[C@@H](C(=O)Nc2cccc(Br)c2F)N(C(=O)Cn2nc(C(N)=O)c3ccccc32)C[C@@H]1F` [Example 755, 1-{2-[(2S,3S,4S)-2-(3-Bromo-2-fluoro-phenylcarbamoyl)-4-fluoro-3-methoxy-pyrrolidin-1-yl]-2-oxo-ethyl}-1H-indazole-3-carboxylic acid amide], the figure is 17 nM.
Take `CO[C@H]1[C@@H](C(=O)Nc2cccc(Br)n2)N(C(=O)Cn2nc(C(C)=O)c3ccccc32)C[C@@H]1F` [Example 756, (2S,3S,4S)-1-[2-(3-Acetyl-indazole-1-yl)-acetyl]-4-fluoro-3-methoxy-pyrrolidine-2-carboxylic acid (6-bromo-pyridin-2-yl)-amide]: the half-maximal inhibitory concentration (IC50) turned out to be 7 nM.
In the case of `CC(=O)c1nn(CC(=O)N2[C@@H]3C[C@@H]3C[C@H]2C(=O)Nc2cncc(Br)n2)c2ccccc12` [Example 757, (1R,3S,5R)-2-[2-(3-Acetyl-indazol-1-yl)-acetyl]-2-aza-bicyclo[3.1.0]hexane-3-carboxylic acid (6-bromo-pyrazin-2-yl)-amide] it was 3 nM; in that of `NC(=O)c1nn(CC(=O)N2[C@H](C(=O)Nc3cccc(OC(F)(F)F)c3F)C[C@@]3(CO)C[C@@H]23)c2ccccc12` [Example 758, 1-{2-[(1R,3S,5S)-3-(2-Fluoro-3-trifluoromethoxy-phenylcarbamoyl)-5-hydroxymethyl-2-aza-bicyclo[3.1.0]hex-2-yl]-2-oxo-ethyl}-1H-indazole-3-carboxylic acid amide], 64 nM; in that of `NC(=O)c1nn(CC(=O)N2[C@H](C(=O)Nc3cccc(Br)c3F)C[C@@]3(CO)C[C@@H]23)c2ccccc12` [Example 759, 1-{2-[(1R,3S,5S)-3-(3-Bromo-2-fluoro-phenylcarbamoyl)-5-hydroxymethyl-2-aza-bicyclo[3.1.0]hex-2-yl]-2-oxo-ethyl}-1H-indazole-3-carboxylic acid amide], 9 nM.
Regarding `NC(=O)c1nn(CC(=O)N2[C@H](C(=O)Nc3cccc(Br)n3)C[C@@]3(CO)C[C@@H]23)c2ccccc12` [Example 760, 1-{2-[(1R,3S,5S)-3-(6-Bromo-pyridin-2-ylcarbamoyl)-5-hydroxymethyl-2-aza-bicyclo[3.1.0]hex-2-yl]-2-oxo-ethyl}-1H-indazole-3-carboxylic acid amide], the IC50 is 12 nM.
Turning to `NC(=O)n1cc(NC(=O)N2C[C@H]3C[C@H]3[C@H]2C(=O)Nc2cccc(Br)n2)c2ccccc21` [Example 763, (1R,2S,5S)-3-Aza-bicyclo[3.1.0]hexane-2,3-dicarboxylic acid 2-[(6-bromo-pyridin-2-yl)-amide]3-[(1-carbamoyl-1H-indol-3-yl)-amide]], the IC50 came to 14 nM.
In the case of `NC(=O)n1cc(NC(=O)N2C[C@H](F)C[C@H]2C(=O)Nc2cccc(Br)n2)c2ccccc21` [Example 764, (2S,4R)-4-Fluoro-pyrrolidine-1,2-dicarboxylic acid 2-[(6-bromo-pyridin-2-yl)-amide]1-[(1-carbamoyl-1H-indol-3-yl)-amide]] it was 4 nM.
As for `CCOC(=O)[C@H](CC1CCCCC1)NC(=O)[C@@H]1C[C@H]2C[C@H]2N1C(=O)Cn1nc(C(C)=O)c2cccnc21` [Example 765], the figure is 211 nM.
On to `COC(=O)[C@H](CC(C)C)NC(=O)[C@@H]1C[C@H]2C[C@H]2N1C(=O)Cn1nc(C(C)=O)c2cccnc21` [Example 766, (S)-2-({(1R,3S,5R)-2-[2-(3-Acetyl-pyrazolo[3,4-b]pyridin-1-yl)-acetyl]-2-aza-bicyclo[3.1.0]hexane-3-carbonyl}-amino)-4-methyl-pentanoic acid methyl ester], for which the IC50 was 216 nM.
In the case of `COC(=O)C(CCC(F)(F)F)NC(=O)[C@@H]1C[C@H]2C[C@H]2N1C(=O)Cn1nc(C(C)=O)c2cccnc21` (stereo partly drawn) [Example 767, 2-({(1R,3S,5R)-2-[2-(3-Acetyl-pyrazolo[3,4-b]pyridin-1-yl)-acetyl]-2-aza-bicyclo[3.1.0]hexane-3-carbonyl}-amino)-5,5,5-trifluoro-pentanoic acid methyl ester] it was 346 nM.
Consider `CC(=O)c1nn(CC(=O)N2[C@@H]3C[C@@H]3C[C@H]2C(=O)Nc2nccc(C(F)(F)F)n2)c2ncccc12` [Example 769, (1R,3S,5R)-2-[2-(3-Acetyl-pyrazolo[3,4-b]pyridin-1-yl)-acetyl]-2-aza-bicyclo[3.1.0]hexane-3-carboxylic acid (4-trifluoromethyl-pyrimidin-2-yl)-amide], for which the half-inhibitory concentration (IC50) was 378 nM.
With `COCCOc1ccc2c(c1)c(C(C)=O)nn2CC(=O)N1[C@@H]2C[C@@H]2C[C@H]1C(=O)Nc1cccc(OC(F)(F)F)c1F` [Example 770, (1R,3S,5R)-2-{2-[3-Acetyl-5-(2-methoxy-ethoxy)-indazol-1-yl]-acetyl}-2-aza-bicyclo[3.1.0]hexane-3-carboxylic acid (2-fluoro-3-trifluoromethoxy-phenyl)-amide], the IC50 was 9 nM.
As to `CC(=O)c1nn(CC(=O)N2[C@@H]3C[C@@H]3C[C@H]2C(=O)Nc2cccc(OC(F)(F)F)c2F)c2ccc(OC(C)C#N)cc12` (stereo partly drawn) [Example 771, (1R,3S,5R)-2-{2-[3-Acetyl-5-(cyano-methyl-methoxy)-indazol-1-yl]-acetyl}-2-aza-bicyclo[3.1.0]hexane-3-carboxylic acid (2-fluoro-3-trifluoromethoxy-phenyl)-amide], the IC50 stood at 8 nM.
In the case of `CC(=O)c1nn(CC(=O)N2[C@@H]3C[C@@H]3C[C@H]2C(=O)Nc2cccc(OC(F)(F)F)c2F)c2ccc(OCC3CCCO3)cc12` (stereo partly drawn) [Example 772, (1R,3S,5R)-2-{2-[3-Acetyl-5-(tetrahydro-furan-2-ylmethoxy)-indazol-1-yl]-acetyl}-2-aza-bicyclo[3.1.0]hexane-3-carboxylic acid (2-fluoro-3-trifluoromethoxy-phenyl)-amide] it was 7 nM; in that of `CC(=O)c1cn(CC(=O)N2C[C@H](F)[C@@H](F)[C@H]2C(=O)NCc2cccc(Cl)c2F)c2ccccc12` [Example 773, (2R,3S,4S)-1-[2-(3-Acetyl-indol-1-yl)-acetyl]-3,4-difluoro-pyrrolidine-2-carboxylic acid 3-chloro-2-fluoro-benzylamide], 28 nM; in that of “(1R,3S,5R)-2-[2-(3-Acetyl-6- amino-pyrrolo[2,3-b]pyridin-1- yl)-acetyl]-2-aza-bicyclo [3.1.0]hexane-3-carboxylic acid 3-chloro-2-fluoro- benzylamide [Example 676]”, 11 nM.
As for “(1R,3S,5S)-5-Hydroxymethyl- 2-aza-bicyclo[3.1.0]hexane- 2,3-dicarboxylic acid 3-(3- chloro-2-fluoro-benzylamide) 2-[(1-methylcarbamoyl-1H- indol-3-yl)-amide] [Example 265]”, the figure is 83 nM; as for “(2S,4R)-4-Fluoro-pyrrolidine-1,2-dicarboxylic acid 1-[(3-carbamoyl-indolizin-1-yl)-amide]2-[(3-trifluoromethoxy-phenyl)-amide] [Example 122]”, 150 nM.
Regarding “(2S,4S)-4-Amino-pyrrolidine-1,2-dicarboxylic acid 1-[(1-carbamoyl-1H-indol-3-yl)-amide] 2-[(2-phenoxy-ethyl)-amide] [Example 91]”, the IC50 was 2950 nM.
“(S)-1-[2-(3-Formyl-indol-1-yl)- acetyl]-pyrrolidine-2- carboxylic acid (3-trifluoro- methoxy-phenyl)-amide [Example 559]”: the 50% inhibitory concentration (IC50) turned out to be 15700 nM.

The record behind these values is patent US9085555B2, “Complement pathway modulators and uses thereof” (priority 2011, dated 2015).
